Measured values from patent publication US20260078144A1, “ACTIVE PEPTIDE, AND COMPOSITION AND USE THEREOF” (WINKEY TECHNOLOGY USA INC, priority 2023, published 2026).

Assays:
Assay type in all cases: cell-based
[1] = tested on: Human skin fibroblasts (HSF); experiment: Cell proliferation assay (MTT) on HSF cells; details: 72 h, FIG. 6
From the text: (§1) Human skin fibroblasts (HSF) were purchased from the Shanghai Cell Bank of China Center for Type Culture Collection under the Chinese Academy of Sciences.
Polypeptide group: Peptide (26), peptide (33), peptide (39) and peptide (49). The test concentrations of all the above samples were 1 ppm, 10 ppm, 50 ppm, 100 ppm, 200 ppm, 500 ppm and 1000 ppm.
Blank control group: PBS.
Positive control group: 2% DMSO.
(§2) Cells in good exponential growth phase were taken. A 0.25% trypsin digestion solution was added so that digestion allowed the adherent cells to fall off, counting 1 to 4×10^5 cells/mL, which were prepared into a cell suspension.
The cell suspension was inoculated into a 96-well plate with 200 µL/well, and cultured in a constant-temperature CO2 incubator for 24 h. […]
20 μL of 5 mg/mL MTT was added to each well and the incubation was continued in the 5% CO2 incubator at 37° C. for 4 h. […] After shaking the plate on a plate shaker for 5 min, a microplate reader was used to determine the OD value of each well at a wavelength of 570 nm, and the cell viability was calculated.
The MTT assay is a method of detecting cell survival and growth. The measured OD values are directly proportional to cell viability. […]

[2] = tested on: Human keratinocytes (HaCaT); experiment: Photoaging experiment (UV-irradiated HaCaT, MTT); details: 80 mJ/cm^2 UV, 24 h, compared with the UV group, FIG. 7
Method: (§3) Human keratinocytes (HaCaT) were purchased from the Kunming Cell Bank of China Center for Type Culture Collection under the Chinese Academy of Sciences.
Polypeptide group: Peptide (26), peptide (33), peptide (39) and peptide (49). The test concentrations of all the above samples were 1 ppm, 10 ppm, 50 ppm, 100 ppm, and 200 ppm.
as §2
The cell suspension was properly diluted and inoculated into a 96-well plate at 10,000 cells/well. When the cells reached approximately 80% confluence, a UV photoaging model was established. In the blank control group, 50 μL of PBS was added, and supplemented with the culture medium to 200 μL, while no UV irradiation was performed. For the UV group and the polypeptide groups, a proper amount of PBS was added to wash the culture repeatedly until colorless, followed by adding 50 μL of PBS and irradiating under an 80 mJ/cm^2 UV light. The distance between the light source and the culture bottle was 15 cm. After irradiation, the PBS was removed. In the UV group, a PBS solution and the culture medium were added to 200 μL; in the polypeptide groups, the culture medium and the samples diluted in a certain ratio were added to 200 μL. The blank control group, the UV group, and the polypeptide groups were further incubated in a 5% CO2 incubator at 37° C. for 24 h.
Then 22 μL of 5 mg/mL MTT was added to each well and the incubation was continued in the 5% CO2 incubator at 37° C. for 4 h. The original solution was removed and 150 µL/well of DMSO was added. After shaking the plate on a plate shaker for 5 min, a microplate reader was used to read the reference OD values at wavelengths of 490 nm and 630 nm.
Skin aging is affected by endogenous and exogenous factors, such as genetics, environmental exposure, UV irradiation, hormonal changes, etc. The accumulation of these factors, especially exposure to UV irradiation, leads to changes in structure, function and appearance of the skin. In this experiment, 80 mJ/cm^2 UV energy was selected for radiation to establish a skin photoaging model.

[3] = tested on: Human keratinocytes (HaCaT); experiment: Determination of hyaluronic acid content; details: 10 ppm, 48 h, compared with blank control group, FIG. 9
Method: as §3
Polypeptide group: Peptide (26), peptide (33), peptide (39) and peptide (49). The test concentrations of all the above samples were 10 ppm.
A bottle of HaCaT cells in good exponential growth phase was taken. A 0.25% trypsin digestion solution was added so that digestion allowed the adherent cells to fall off, counting 1 to 4×10^6 cells/mL, which were prepared into a cell suspension.
The cells were inoculated into a 6-well plate at 10^5 cells/well, and grouped when the cells reached approximately 80% confluence. […]
After completion of the culture, cells were scraped off using a cell scraper, and 200 μL of RIPA lysis buffer was added to extract proteins. […] The total protein concentration was quantified to 1 mg/mL using the BCA method. […] The OD value of each well was measured in sequence at 570 nm using a microplate reader within 15 min.
Hyaluronic acid is one of the main matrix ingredients of the human skin epidermis and an important component of the skin barrier. […] This experiment measured the effect of the peptide of the present invention on the hyaluronic acid content to determine whether the peptide of the invention can increase the hyaluronic acid content and thus play a role in moisturizing and anti-aging repair.

[4] = tested on: Human skin fibroblasts (HSF); experiment: Collagen content assay (collagen I ELISA, UV photoaging model); details: 100 ppm, UV-irradiated HSF, 48 h, FIG. 10
Method: as §1
Polypeptide group: Palmitoyl pentapeptide-4 (Palm-Lys-Thr-Thr-Lys-Ser-OH), peptide (26), peptide (32), peptide (33), peptide (39), and peptide (49), all at a test concentration of 100 ppm;
HSF cells in good exponential growth phase were taken. A 0.25% trypsin digestion solution was added so that digestion allowed the adherent cells to fall off, counting 1 to 4×10^6 cells/mL, which were prepared into a cell suspension.
The cell suspension was inoculated into a 6-well plate at 10^5 cells/well. A UV photoaging model was established when the cells reached approximately 80% confluence. In the blank control group, 200 μL of PBS was added, supplemented with the culture medium to 800 μL, while no UV irradiation was performed. For the UV group and the polypeptide groups, a proper amount of PBS was added to wash the culture repeatedly until colorless, followed by adding 200 μL of PBS and irradiating under an 80 mJ/cm^2 UV light. The distance between the light source and the culture bottle was 15 cm. After irradiation, the PBS was removed. In the UV group, a PBS solution and culture medium were added to 800 μL; in the polypeptide groups, the culture medium and the samples diluted in a certain ratio were added to 800 μL. The blank control group, the UV group, and the polypeptide groups were further incubated in a 5% CO2 incubator at 37° C. for 48 h.
After completion of the culture, the cells were scraped off using a cell scraper, mixed by pipetting, and the cell protein was extracted using RIPA and quantified to 1 mg/mL with BCA. The procedure was performed according to the operation instructions of collagen I ELISA. The OD value of each well was measured in sequence at 450 nm using a microplate reader within 15 min.
Collagen is the most abundant protein found in connective tissue, and provides plumpness and firmness to the skin. […] In this experiment, UV-irradiated cells were treated with test samples, and the content of collagen I in corresponding cells was detected to determine whether the peptide of the present invention can promote collagen synthesis.

[5] = tested on: Human keratinocytes (HaCaT); experiment: Cell scratch assay; details: 24 h, FIG. 8; for order of effects on promoting the proliferation and migration of HaCaT cells: 50-100 ppm
Method: as §3
Polypeptide group: Peptide (26), peptide (33), peptide (39) and peptide (49). The test concentrations of all the above samples were 50 ppm and 100 ppm.
Positive control group: 50 U/mL of EGF.
A bottle of HaCaT cells in good exponential growth phase was taken. A 0.25% trypsin digestion solution was added so that digestion allowed the adherent cells to fall off, counting 1 to 4×10^5 cells/mL, which were prepared into a cell suspension.
The cells were inoculated into a 24-well plate at a density of 150,000 cells/well, with 2 mL cell suspension per well. After the cells attached to the wall and grew to 100% confluence, the culture medium was replaced with a medium containing 0.5%-1% fetal bovine serum to maintain the cells for 24 h for synchronization. A sterilized pipette tip was used to scratch a wound, the detached cells were washed off with PBS, and the samples to be tested were added. The incubation was continued in the 5% CO2 incubator at 37° C., and the migration of cells was observed under an optical microscope after 24 h.
The scratch migration experiment of cells can reflect the proliferation and repair ability of cells. A scratch assay was performed on the basis of HaCaT cells growing all over the dish, and the migration of cells was observed under an optical microscope 24 h after administration of the samples to evaluate the effect of the test samples on cell proliferation and migration.

Row | Molecule | activity of photoaged HaCaT keratinocytes ([2]; range of 1-200 ppm) | collagen content (collagen I) compared with palmitoyl pentapeptide-4 [4] | order of effects on promoting the proliferation and migration of HaCaT cells [5] | other results
1 | C[S+](C)[O-] [DMSO, dimethyl sulfoxide, reference compound] | – | – | – | HSF cell viability (positive control) ([1]; 2% DMSO, compared with blank control group): toxic effect on HSF cells
2 | Ac-Lys-Arg-Tyr-Gly-Trp-NH2 (Ac-KRYGW-NH2) [peptide (49)] | improve the activity of HaCaT keratinocytes to different degrees | more significantly increase the collagen content | peptide (33)>peptide (26)>peptide (49)>peptide (39) | hyaluronic acid content [3]: more superior technical effects
3 | Ac-Lys-Lys-Trp-Val-Thr-His-NH2 (Ac-KKWVTH-NH2) [peptide (39)] | – | more significantly increase the collagen content | peptide (33)>peptide (26)>peptide (49)>peptide (39) | activity of photoaged HaCaT keratinocytes ([2]; at 1 ppm, 100 ppm and 200 ppm): improve cell activity; HSF cell activity / proliferation of HSF fibroblasts ([1]; low concentration of 1-10 ppm): significantly increase cell activity and promote the proliferation of HSF fibroblasts
4 | Ac-Lys-Pro-Leu-Trp-His-Val-NH2 (Ac-KPLWHV-NH2) [peptide (33)] | improve the activity of HaCaT keratinocytes to different degrees | more significantly increase the collagen content | peptide (33)>peptide (26)>peptide (49)>peptide (39) | –
5 | Ac-Lys-Pro-Leu-Trp-His-Val-OH (Ac-KPLWHV-OH) [peptide (32)] | – | more significantly increase the collagen content | – | –
6 | Ac-Tyr-Gly-Trp-Lys-Lys-Gln-NH2 (Ac-YGWKKQ-NH2) [peptide (26)] | improve the activity of HaCaT keratinocytes to different degrees | more significantly increase the collagen content | peptide (33)>peptide (26)>peptide (49)>peptide (39) | hyaluronic acid content [3]: more superior technical effects
7 | EGF: Positive control group: 50 U/mL of EGF [reference compound] | – | – | – | cell proliferation and migration of HaCaT cells (positive control) ([5]; 50 U/mL, compared with blank control group): obvious cell proliferation and migration
